Values quoted from earlier work in patent US20080152709A1, “CLONIDINE COMPOSITION AND METHOD OF USE” (DRUGTECH CORPORATION, priority 2006, published 2008).
Counter-ions that a name gives are not always drawn. Like-named read-outs stand apart in the source and are kept apart here.

How the values were obtained:
[1] = administered orally
[2] = oral administration of 0.3 mg
[3] = not given; remark: listed apart in the source
[4] = oral 0.075 mg twice daily for three days; third day
[5] = once daily oral 0.25 and 0.5 mg, sustained-release formulation
[6] = test system: patients with morning hypertension; settings: once daily in the evening, added to pre-existing antihypertensive regimen
[7] = not given; remark: listed apart in the source
[8] = single oral dose of 0.3 mg clonidine hydrochloride
[9] = single oral dose of 0.3 mg, all subjects

mean maximum plasma concentration [8] [ng/mL] | time of mean maximum concentration after administration [8] [h] | plasma concentration at 24 hours (single oral dose of 0.3 mg clonidine hydrochloride, 24 hours) | salivary flow (dry mouth symptoms) [9] | absorption from the gastrointestinal tract [1] | peak plasma clonidine concentration [2] [ng/mL] | peak clonidine concentration (Cmax) ([3]; single oral dose 0.075 mg) [ng/mL] | plasma concentration 24 hours after administration ([3]; single oral dose 0.075 mg) [ng/mL] | peak clonidine concentration (Cmax) ([3]; single oral dose 0.15 mg) [ng/mL] | plasma concentration 24 hours after administration ([3]; single oral dose 0.15 mg) [ng/mL] | peak clonidine concentration (Cmax) ([3]; single oral dose 0.25 mg) [ng/mL] | plasma concentration 24 hours after administration ([3]; single oral dose 0.25 mg) [ng/mL] | peak clonidine concentration [4] [ng/mL] | SMILES | sedation [9] | 24-hour antihypertensive efficacy [5] | morning blood pressure [6] | effect on diastolic blood pressure ([7]; 0.1 mg administered at 4 pm or 8 pm) | effect on diastolic blood pressure ([7]; 0.1 mg administered at 6 am or 12 noon)
1.35 | 1 | below 0.5 ng/ml | marked reduction in salivary flow | – | – | – | – | – | – | – | – | – | Clc1cccc(Cl)c1N=C1NCCN1 [clonidine hydrochloride] | markedly sedated | – | – | – | –
– | – | – | – | almost completely absorbed | 1.34 | 0.28 | 0.06 | 0.61 | 0.07 | 1.16 | 0.34 | 0.39 | Clc1cccc(Cl)c1NC1=NCCN1 [clonidine, N-(2,6-dichlorophenyl)-4,5-dihydro-1H-imidazol-2-amine] | – | Reduction in blood pressure was observed throughout the 24 hours | effective in reducing morning blood pressure | not | reduced diastolic blood pressure
